From US20190225650A1, “PEPTIDOMIMETIC MACROCYCLES AND USE THEREOF IN REGULATING HIF1ALPHA” (AILERON THERAPEUTICS, INC., priority 2013, published 2019)
Bridge positions count the residues as written; N and C are the ends. Square brackets hold non-standard residues; d marks the D form. Peptide text beside a SMILES is read from it. S5 = C=CCCC[C@](C)(N)C(=O)O; Nle = CCCC[C@H](N)C(=O)O; Dap = NC[C@H](N)C(=O)O

Test system: HRE-bla ME-180 cells
Experiment: Reporter gene assay (HRE-bla ME-180 HIF reporter, GeneBLAzer)
Format: cell-based, human
Conditions: for EC50: 24 hour normoxia
Procedure: The following reagents were used:
• DMEM+GutaMAX: (#10569044, Invitrogen) • Black clear bottom plates: (#3603, Costar) • HRE-bla-ME-180 cell line: (#K1644, Invitrogen) • Gene-Blazer reagent & protocol: (#K1096, Invitrogen) • Plate reader: Biotek Synergy 2 • Chetomin: (C9623, Sigma)
4 hours prior to experiment: HRE-bla ME-180 cells were seeded at a density of 20,000 cells/well in a volume of 180 μl in black clear bottom 96-well plates. 180 μl of assay medium was added to the cell-free control wells. Incubation was conducted at 37° C., 5% CO2 for 4 hours.
Diluted chetomin was used as a positive control. Chetomin was diluted in 100% DMSO to a 10 mM stock concentration. A 1 mM stock of chetomin was prepared in 100% DMSO. Then the 1 mM chetomin stock was serially diluted in 1:4 in 100% DMSO. Finally, 50, 12.5, 3.125, 0.78, 0.2, 0.05 μM stock of chetomin in 5% DMSO/water were prepared by adding 114 μL water+6 μL chetomin in DMSO.
Test peptides were diluted before use. The test peptides were diluted in 100% DMSO to a 10 mM stock concentration. Then each 10 mM peptide stock was diluted in 1:3 in 100% DMSO. Finally, 300, 100, 33.3, 11.1, 3.7, 1.2 μM stock of each peptide in 5% DMSO/water were prepared by adding 129.2 μL water+4 μL peptide in DMSO.
20 μl of peptide, chetomin dilution, or DMSO/water control were added to the appropriate wells of a plate to achieve 200 μL final volumes in 0.3% DMSO/media. The plate was first incubated for 18-20 hours in normoxia incubator (37° C. in humidified 5% CO2, 20% O2 atmosphere). Then the plate was transferred to hypoxia incubator for 24 hours (37° C. in humidified 5% CO2, 1% O2 atmosphere)
6× LiveBLAzer™-FRET B/G (CCF4-AM) Substrate Mixture was prepared according to CellSensor™ HRE-bla ME-180 Cell-based Assay Protocol (Invitrogen) and added into each well. Solution A (CCF4-AM) was reconstituted in DMSO to a working concentration of 1 mM, divided in aliquots, and stored at −20° C. The 6× LiveBLAzer-FRET B/G (CCF4-AM) Substrate mixture was prepared by mixing 6 μl of Solution A, 60 μl of Solution B, and 934 μl Solution C.
The plates were removed from incubator and equilibrated to RT for a few minutes. Then 20 μl of 6× Substrate mixture was added to each well. The plates were then incubated at room temperature for 3 hr in the dark and read at 409 Ex/460Em and 409Ex/530Em using the “GeneBlazer-Tungsten with export” program on the Synergy 2.
The average percentage of maximum inhibition was obtained by comparing the peptide treated cells (30 μM) to DMSO vehicle control treated cells. The results are shown in the columns “ME-180 HIF Reporter EC50 (μM) −24 hr normoxia” and “18 h Avg % max inhibition at top conc (HIF Rptr-24 hrsnormoxia) (μM)” of Table 6.

Row | Structure (SMILES) | 18 h Avg % max inhibition at top conc (HIF Rptr-24 hrs normoxia) (μM) | EC50
1 | CCCC[C@H](NC(=O)[C@H](CC(C)C)NC(=O)[C@@H](NC(=O)[C@H](CCC(=O)O)NC(=O)[C@H](CCC(=O)O)NC(=O)[C@H](CC(=O)O)NC(=O)[C@@H](NC(=O)[C@H](Cc1ccccc1)NC(C)=O)[C@@H](C)CC)C(C)C)C(=O)N[C@@]1(C)CCCC=CCCC[C@@](C)(C(=O)N[C@@H](CCCC)C(=O)N[C@@H](C)C(=O)N[C@@H](CC(C)C)C(=O)N[C@@H](CC(=O)O)C(=O)N[C@@H](CCCNC(=N)N)C(=O)N[C@H](C(N)=O)[C@@H](C)CC)NC(=O)[C@H]([C@@H](C)CC)NC(=O)[C@H](C(C)C)NC(=O)[C@H](C)NC1=O [SP-17] (Ac-FIDEEVL[Nle][S5]AVI[S5][Nle]ALDRI-NH2; staple 9-13) | ++++ (≥50: ++++) | 5 to 15 µM
2 | CCCC[C@H](NC(=O)[C@H](CC(C)C)NC(=O)[C@@H](NC(=O)[C@H](CCC(=O)O)NC(=O)[C@H](CCC(=O)O)NC(=O)[C@H](CC(=O)O)NC(=O)[C@@H](NC(=O)[C@H](Cc1ccccc1)NC(C)=O)[C@@H](C)CC)C(C)C)C(=O)N[C@@]1(C)CCCC=CCCC[C@@](C)(C(=O)N[C@@H](CCCC)C(=O)N[C@@H](C)C(=O)N[C@@H](CC(C)C)C(=O)N[C@@H](CC(=O)O)C(=O)N[C@@H](CCCNC(=N)N)C(=O)N[C@@H](C)C(N)=O)NC(=O)[C@H]([C@@H](C)CC)NC(=O)[C@H](C(C)C)NC(=O)[C@H](CC(C)C)NC1=O [SP-25] (Ac-FIDEEVL[Nle][S5]LVI[S5][Nle]ALDRA-NH2; staple 9-13) | +++ (≤25 but <50: +++) | 5 to 15 µM
3 | CCCC[C@H](NC(=O)[C@H](CC(C)C)NC(=O)[C@@H](NC(=O)[C@H](CCC(=O)O)NC(=O)[C@H](CCC(=O)O)NC(=O)[C@H](CC(=O)O)NC(=O)[C@H](CO)NC(=O)[C@H](Cc1ccccc1)NC(C)=O)C(C)C)C(=O)N[C@@]1(C)CCCC=CCCC[C@@](C)(C(=O)N[C@@H](CCCC)C(=O)N[C@@H](C)C(=O)N[C@@H](CC(C)C)C(=O)N[C@@H](CC(=O)O)C(=O)N[C@@H](CCCNC(=N)N)C(=O)N[C@H](C(N)=O)[C@@H](C)CC)NC(=O)[C@H]([C@@H](C)CC)NC(=O)[C@H](C(C)C)NC(=O)[C@H](CC(C)C)NC1=O [SP-45] (Ac-FSDEEVL[Nle][S5]LVI[S5][Nle]ALDRI-NH2; staple 9-13) | ++ (≤10 but <25: ++) | > 30 µM
4 | CC[C@H](C)[C@H](NC(=O)[C@H](CCCNC(=N)N)NC(=O)[C@H](CC(=O)O)NC(=O)[C@H](CC(C)C)NC(=O)CNC(=O)[C@H](CCSC)NC(=O)[C@]1(C)CCCC=CCCC[C@](C)(NC(=O)[C@H](CCSC)NC(=O)[C@H](CC(C)C)NC(=O)[C@@H](NC(=O)[C@H](CCC(=O)O)NC(C)=O)C(C)C)C(=O)N[C@@H](CC(C)C)C(=O)N[C@@H](C(C)C)C(=O)N[C@@H]([C@@H](C)CC)C(=O)N1)C(=O)N[C@@H](CCCCN)C(=O)N[C@@H](CCC(=O)O)C(=O)N[C@@H](CC(C)C)C(=O)N1CCC[C@H]1C(=O)N[C@@H](CCC(=O)O)C(=O)N[C@@H](CC(C)C)C(=O)N[C@@H](Cc1c[nH]c2ccccc12)C(=O)N[C@@H](CC(C)C)C(N)=O [SP-89] (Ac-EVLM[S5]LVI[S5]MGLDRIKELPELWL-NH2; staple 5-9) | +++ (≤25 but <50: +++) | 5 to 15 µM
5 | CCCC[C@H](NC(=O)[C@H](CC(C)C)NC(=O)[C@@H](NC(=O)[C@H](CCC(=O)O)NC(=O)[C@H](CCC(=O)O)NC(=O)[C@H](CC(=O)O)NC(=O)[C@@H](NC(=O)[C@H](Cc1ccccc1)NC(C)=O)[C@@H](C)CC)C(C)C)C(=O)N[C@@]1(C)CCCC=CCCC[C@@](C)(C(=O)N[C@@H](CN)C(=O)N[C@@H](C)C(=O)N[C@@H](CC(C)C)C(=O)N[C@@H](CC(=O)O)C(=O)N[C@@H](CCCNC(=N)N)C(=O)N[C@H](C(N)=O)[C@@H](C)CC)NC(=O)[C@H]([C@@H](C)CC)NC(=O)[C@H](C(C)C)NC(=O)[C@H](CC(C)C)NC1=O [SP-66] (Ac-FIDEEVL[Nle][S5]LVI[S5][Dap]ALDRI-NH2; staple 9-13) | ++ (≤10 but <25: ++) | > 30 µM
6 | CCCC[C@H](NC(=O)[C@H](CC(C)C)NC(=O)[C@@H](NC(=O)[C@H](CCC(=O)O)NC(=O)[C@H](CCC(=O)O)NC(=O)[C@H](CC(=O)O)NC(=O)[C@@H](NC(=O)[C@H](Cc1ccccc1)NC(C)=O)[C@@H](C)CC)C(C)C)C(=O)N[C@@]1(C)CCCC=CCCC[C@@](C)(C(=O)N[C@@H](CCCC)C(=O)N[C@@H](C)C(=O)N[C@@H](CC(C)C)C(=O)N[C@@H](CC(=O)O)C(=O)N[C@@H](CCCNC(=N)N)C(=O)N[C@H](C(N)=O)[C@@H](C)CC)NC(=O)[C@H](CCC(=O)O)NC(=O)[C@H](C(C)C)NC(=O)[C@H](CC(C)C)NC1=O [SP-37] (Ac-FIDEEVL[Nle][S5]LVE[S5][Nle]ALDRI-NH2; staple 9-13) | + (<10: +) | > 30 µM
7 | CCCC[C@H](NC(=O)[C@H](CC(C)C)NC(=O)[C@@H](NC(=O)[C@H](CCC(=O)O)NC(=O)[C@H](C)NC(=O)[C@H](CC(=O)O)NC(=O)[C@@H](NC(=O)[C@H](Cc1ccccc1)NC(C)=O)[C@@H](C)CC)C(C)C)C(=O)N[C@@]1(C)CCCC=CCCC[C@@](C)(C(=O)N[C@@H](CCCC)C(=O)N[C@@H](C)C(=O)N[C@@H](CC(C)C)C(=O)N[C@@H](CC(=O)O)C(=O)N[C@@H](CCCNC(=N)N)C(=O)N[C@H](C(N)=O)[C@@H](C)CC)NC(=O)[C@H]([C@@H](C)CC)NC(=O)[C@H](C(C)C)NC(=O)[C@H](CC(C)C)NC1=O [SP-12] (Ac-FIDAEVL[Nle][S5]LVI[S5][Nle]ALDRI-NH2; staple 9-13) | ++++ (≥50: ++++) | 5 to 15 µM
8 | CCCC[C@H](NC(=O)[C@H](CC(C)C)NC(=O)[C@@H](NC(=O)[C@H](CCC(N)=O)NC(=O)[C@H](CCC(=O)O)NC(=O)[C@H](CC(=O)O)NC(=O)[C@@H](NC(=O)[C@H](Cc1ccccc1)NC(C)=O)[C@@H](C)CC)C(C)C)C(=O)N[C@@]1(C)CCCC=CCCC[C@@](C)(C(=O)N[C@@H](CCCC)C(=O)N[C@@H](C)C(=O)N[C@@H](CC(C)C)C(=O)N[C@@H](CC(=O)O)C(=O)N[C@@H](CCCNC(=N)N)C(=O)N[C@H](C(N)=O)[C@@H](C)CC)NC(=O)[C@H]([C@@H](C)CC)NC(=O)[C@H](C(C)C)NC(=O)[C@H](CC(C)C)NC1=O [SP-69] (Ac-FIDEQVL[Nle][S5]LVI[S5][Nle]ALDRI-NH2; staple 9-13) | ++++ (≥50: ++++) | 5 to 15 µM
9 | CCCC[C@H](NC(=O)[C@H](CCC(=O)O)NC(=O)[C@@H](NC(=O)[C@@H](NC(=O)[C@H](CC(C)C)NC(=O)[C@]1(C)CCCC=CCCC[C@](C)(NC(=O)[C@H](CCC(=O)O)NC(=O)[C@H](CC(=O)O)NC(=O)[C@@H](NC(=O)[C@H](Cc2ccccc2)NC(C)=O)[C@@H](C)CC)C(=O)N[C@@H](C(C)C)C(=O)N[C@@H](CC(C)C)C(=O)N[C@@H](CCCC)C(=O)N1)C(C)C)[C@@H](C)CC)C(=O)N[C@@H](C)C(=O)N[C@@H](CC(C)C)C(=O)N[C@@H](CC(=O)O)C(=O)N[C@@H](CCCNC(=N)N)C(=O)N[C@H](C(=O)N[C@@H](CCCCN)C(=O)N[C@@H](CCC(=O)O)C(=O)N[C@@H](CC(C)C)C(=O)N1CCC[C@H]1C(=O)N[C@@H](CCC(=O)O)C(=O)N[C@@H](CC(C)C)C(=O)N[C@@H](Cc1c[nH]c2ccccc12)C(=O)N[C@@H](CC(C)C)C(N)=O)[C@@H](C)CC [SP-106] (Ac-FIDE[S5]VL[Nle][S5]LVIE[Nle]ALDRIKELPELWL-NH2; staple 5-9) | – | > 30 µM
10 | CC[C@H](C)[C@H](NC(=O)[C@H](Cc1ccccc1)NC(C)=O)C(=O)N[C@@H](CC(=O)O)C(=O)N[C@@H](CCC(=O)O)C(=O)N[C@@H](CCC(=O)O)C(=O)N[C@H](C(=O)N[C@@H](CC(C)C)C(=O)N[C@@H](C)C(=O)N[C@@]1(C)CCCC=CCCC[C@@](C)(C(=O)N[C@@H](C)C(=O)N[C@@H](C)C(=O)N[C@@H](CC(C)C)C(=O)N[C@@H](CC(=O)O)C(=O)N[C@@H](CCCNC(=N)N)C(N)=O)NC(=O)[C@H]([C@@H](C)CC)NC(=O)[C@H](C(C)C)NC(=O)[C@H](CC(C)C)NC1=O)C(C)C [SP-28] (Ac-FIDEEVLA[S5]LVI[S5]AALDR-NH2; staple 9-13) | ++++ (≥50: ++++) | 15 to 30 µM
